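Exposure lasted 48 hours, with cells grown in 96-well plates and compounds tested at five concentrations. Definition used: TGI = concentration required for complete inhibition of growth.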
Tests used:
Assay in all cases: inhibition of tumour cell growth, NCI panel, 48 h
[1] = test system: RXF 393 renal
[2] = test system: NCI-H23 lung
[3] = test system: A549 NSCLC
[4] = test system: MALME-3M melanoma
[5] = test system: HCT-15 colon
[6] = test system: SK-MEL-5 melanoma
[7] = test system: KM12 colon
[8] = test system: U251 CNS
[9] = test system: OVCAR-5 ovarian
[10] = test system: HOP-92 NSCLC
[11] = test system: HT29 colon
[12] = test system: HOP-62 NSCLC
[13] = test system: NCI-H522 lung
[14] = test system: SR leukemia
[15] = test system: SNB-75 CNS
[16] = test system: OVCAR-4 ovarian
[17] = test system: ACHN renal
[18] = test system: OVCAR-3 ovarian
[19] = test system: CCRF-CEM leukemia

Measured: TGI

C[N+](C)(C)CCc1ccccc1
> 100 µM: all assays above

NCCSS(=O)(=O)CCN
> 100 µM: all assays above

— PubChem BioAssay (NCI)
